Measurements reported in patent US20240390434A1, “PROBIOTIC ENHANCERS AND USES THEREOF” (Blis Technologies Limited, priority 2021, published 2024).

How the values were obtained:
Type in all cases: cell-based
ENTR indicator strains [1] = assay: Dose response deferred antagonism assay, producer K12: average over indicators
Method: 1-2 producer strain colonies were transferred from a stock plate into 900 μL of suspension solution using a fresh cotton swab. Following this, suspensions were vortexed, and a sample was inoculated onto solid culture media using a fresh cotton swab. The inoculation was a streak that runs diametrically across the agar plate in a 1.5 cm wide strip. The plate was then incubated. Following incubation all visible colonies were removed by swabbing them from the agar surface. The plates were then treated with chloroform by dispensing 2 ml of chloroform onto 4 cm×4 cm piece of cloth and sealing the inverted agar plate on top for 30 minutes. The plates were then air dried for 30 minutes following chloroforming. 1-2 indicator strain colonies were then transferred from a stock plate into complementary suspension solution. […]
Each indicator streak was prepared with fresh a suspension containing cells from a corresponding stock plate containing the indicator strain of interest. […] Results were measured by qualitatively reviewing the subsequent (if any) sizes of the zones of inhibition (ZOI) of indicator strain colony growth. […]
CABCa agar plates containing various concentrations of saccharide were prepared according to the methods described in Method 1. […] Results were recorded by measuring the size of the zone of inhibition (ZOI) in mm. […]

[2] = system: representative microorganisms from skin, dental, oral, ENTR diseases; assay: Dose response assay with dairy free K12 or M18; conditions: 2.5% w/w raffinose vs equal weight percentage of saccharides; pH adjusted
Method: CABCa agar plates containing various concentrations of saccharide were prepared according to the methods described in Method 1. Producer strains were transferred from stock agar plates into 900 μL THB using a fresh cotton swab. A plastic spread plater was cut to approximately 1.2 cm width and then dipped into ethanol and left to air dry to ensure sterility. A 100 μL sample of the producer strain suspension was then dispensed onto the agar surface in a straight line running diametrically across the agar surface in (approximately) 20 μL spots. The spots were spaced approximately 1.5 cm apart from each other. The plastic spreader was then used to evenly distribute the spots across the agar surface in a 1.5 cm wide strip. This step was taken to ensure an even producer streak was inoculated onto the agar surface and provided an approximate measure of the initial inoculum concentration. Separate plastic spreaders were used for samples containing different producer strains. The samples were left to soak into the agar surface until there was no visible liquid remaining on the agar surface (approximately 20 minutes). Following producer streak preparations, the deferred antagonism assay protocol was followed as per Method 2. Results were recorded by measuring the size of the zone of inhibition (ZOI) in mm. […]

ENTR indicator strains [3] = assay: Dose response deferred antagonism assay, producer M18: average over indicators
M. catarrhalis TW1 = assay: Deferred antagonism assay, producer S. salivarius K12
Method: (§1) 1-2 producer strain colonies were transferred from a stock plate into 900 μL of suspension solution using a fresh cotton swab. Following this, suspensions were vortexed, and a sample was inoculated onto solid culture media using a fresh cotton swab. The inoculation was a streak that runs diametrically across the agar plate in a 1.5 cm wide strip. The plate was then incubated. Following incubation all visible colonies were removed by swabbing them from the agar surface. The plates were then treated with chloroform by dispensing 2 ml of chloroform onto 4 cm×4 cm piece of cloth and sealing the inverted agar plate on top for 30 minutes. The plates were then air dried for 30 minutes following chloroforming. 1-2 indicator strain colonies were then transferred from a stock plate into complementary suspension solution. The suspensions were then vortexed, and a sample was inoculated onto the same agar surface. These samples were streaked in a perpendicular direction to the initial producer streak.
(§2) Each indicator streak was prepared with fresh a suspension containing cells from a corresponding stock plate containing the indicator strain of interest. Indicator strains suspension samples were transferred using a fresh cotton swab. Results were measured by qualitatively reviewing the subsequent (if any) sizes of the zones of inhibition (ZOI) of indicator strain colony growth. A positive result is when there is a distinctive reduction or complete inhibition of indicator colony growth on the culture medium.
(§3) CABCa agar plates containing various concentrations of saccharide were prepared according to the methods described in Method 1. Producer strains were transferred from stock agar plates into 900 μL THB using a fresh cotton swab. A plastic spread plater was cut to approximately 1.2 cm width and then dipped into ethanol and left to air dry to ensure sterility. A 100 μL sample of the producer strain suspension was then dispensed onto the agar surface in a straight line running diametrically across the agar surface in (approximately) 20 μL spots. The spots were spaced approximately 1.5 cm apart from each other. The plastic spreader was then used to evenly distribute the spots across the agar surface in a 1.5 cm wide strip. This step was taken to ensure an even producer streak was inoculated onto the agar surface and provided an approximate measure of the initial inoculum concentration. Separate plastic spreaders were used for samples containing different producer strains. The samples were left to soak into the agar surface until there was no visible liquid remaining on the agar surface (approximately 20 minutes). Following producer streak preparations, the deferred antagonism assay protocol was followed as per Method 2. Results were recorded by measuring the size of the zone of inhibition (ZOI) in mm.
(§4) A dose response assay was carried out according to method 3 above, except a 1.2 cm streak was used. For the individual saccharide testing the pH of the producer streak was adjusted after the growth of producer to change the acidic conditions.

[4] = system: halitosis-causing gram-negative bacteria F. nucleatum, P. gingivalis and P. intermedia; assay: Deferred antagonism assay (anaerobic), producer K12; conditions: 2.5% w/w raffinose; 0.5% w/w galactose; or combination
Method: Method: CABCa agar plates were prepared with or without 2.5% w/w raffinose, 0.5% w/w galactose or a combination of both saccharides by the addition of 0.5% (w/v) calcium carbonate to solid CAB agar in bottles and then melted by autoclaving at 110° C. for 10 mins. Once cooled, filter sterilised solutions of the saccharides or distilled water were added and mixed and then 20 ml pipetted into petri dishes.
A deferred antagonism assay was conducted using K12 or M18 raw ingredient suspended in THB. This was spread as a 1.2 cm streak containing approximately 1-2×10^6 cfu down the middle of a CABCa control or CABCa galactose supplemented test plate. After 18 hrs growth at 37° C., 5% CO2 in air, bacterial growth was removed, and the pH of the agar in the initial streak was measured and adjusted to a pH of 6.5-7.5 using 0.5M sodium carbonate pH11 before sterilizing the agar surface using chloroform vapor. Bacterial test strains were suspended in THB and swabbed across the plates perpendicular to the initial streak and then the plates were incubated at 37° C. in an anaerobic jar containing an anaeroGen sachet for 4 days. Zones of inhibition for each test strain were then measured (mm).

indicator strains [5] = assay: Deferred antagonism assay, producer S. salivarius K12: total strains inhibited; conditions: for Total stains inhibited / Total strains inhibited / Total number of strains inhibited: K12
Method: as §1, §2, §3, §4
(§5) A deferred antagonism assay was conducted using K12 or M18 raw ingredient suspended in Todd Hewitt broth (THB). This was spread as a 1.2 cm streak containing approximately 1-2×10^6 cfu down the middle of a CABCa control or CABCa galactose supplemented test plate. After 18 hrs growth at 37° C. with 5% CO2, bacterial growth was removed, and the pH of the agar in the initial streak was measured and adjusted to a pH of 6.5-7.5 using 0.5M sodium carbonate pH11 before sterilizing the agar surface using chloroform vapor. Bacterial test strains were suspended in i-THB before being swabbed across the plates perpendicular to the initial streak. Plates were incubated for a further 18 hrs incubation at 37° C. with 5% CO2 before measuring (mm) any zones of inhibition for each test strain, […]

indicator strains [6] = assay: Deferred antagonism assay, producer S. salivarius M18: total strains inhibited
Method: as §1, §2, §3, §4, §5

For `O=C[C@H](O)[C@@H](O)[C@@H](O)[C@H](O)CO` [Galactose, D-galactose], the “Average ZOI change” value (ENTR indicator strains [1]; 2% galactose) was 9.5 mm, the “inhibitory action of dairy free K12 or M18” value [2] was “enhanced inhibitory activity” and the “Average ZOI change” value (ENTR indicator strains [3]; 1.5% galactose) was 11.5 mm. The “change in TW1 ZOI size” value (M. catarrhalis TW1; 1.5% galactose (w/v), peak) was 12 mm, the “antimicrobial activity of K12 against halitosis-causing gram-negative bacteria” value [4] was “did not induce antimicrobial activity” and the Total stains inhibited (indicator strains [5]; Galactose 0.5% w/w) was 5/6. The Total stains inhibited (indicator strains [5]; Galactose 1.25% w/w) was 5/7, the Total stains inhibited (indicator strains [5]; Galactose 1.7% w/w) was 4/7 and the Total stains inhibited (indicator strains [5]; Galactose 2.5% w/w) was 4/7. For the same compound, the Total stains inhibited (indicator strains [5]; Galactose 3.3% w/w) was 2/7, the Total stains inhibited (indicator strains [5]; Galactose 5% w/w) was 0/7 and the Total strains inhibited (indicator strains [5]; saccharide 3.3% w/v) was 0/3. The Total strains inhibited (indicator strains [5]; saccharide range 0.83%-3.3% w/v) was 1/3, the “inhibitory activity (potency) and spectrum of Blis K12 and Blis M18” value (indicator strains [5]; only at 0.5% w/w Galactose) was “enhanced inhibitory activity” and the Total stains inhibited (indicator strains [6]; Galactose 0.5% w/w) was 5/7. The Total stains inhibited (indicator strains [6]; Galactose 1.25% w/w) was 4/7, the Total stains inhibited (indicator strains [6]; Galactose 1.7% w/w) was 1/7 and the Total stains inhibited (indicator strains [6]; Galactose 2.5% w/w) was 2/7. The Total stains inhibited (indicator strains [6]; Galactose 3.3% w/w) was 5/7 and the Total stains inhibited (indicator strains [6]; Galactose 5% w/w) was 2/7.

For `OC[C@H]1O[C@H](OC[C@H]2O[C@H](O[C@]3(CO)O[C@H](CO)[C@@H](O)[C@@H]3O)[C@H](O)[C@@H](O)[C@@H]2O)[C@H](O)[C@@H](O)[C@H]1O` [Raffinose, D-(+) Raffinose pentahydrate], the “Average ZOI change” value (ENTR indicator strains [1]; 1.5% raffinose) was 10.33 mm, the “inhibitory action of dairy free K12 or M18” value [2] was “enhanced inhibitory action” and the “Average ZOI change” value (ENTR indicator strains [3]; 1.5% raffinose) was 22.16 mm. The “change in ZOI size M. catarrhalis TW1” value (M. catarrhalis TW1; 2.0% (w/v) raffinose, peak) was 13 mm, the “Zone of inhibition M. catarrhalis TW1” value (M. catarrhalis TW1; Raffinose 1.7% wt) was 0 mm and the “Zone of inhibition M. catarrhalis TW1” value (M. catarrhalis TW1; Raffinose 1.7% wt, pH adjusted) was 0 mm. For the same compound, the “Zone of inhibition M. catarrhalis TW1” value (M. catarrhalis TW1; Raffinose 2.5% wt) was 10 mm, the “Zone of inhibition M. catarrhalis TW1” value (M. catarrhalis TW1; Raffinose 2.5% wt, pH adjusted) was 0 mm and the “Zone of inhibition M. catarrhalis TW1” value (M. catarrhalis TW1; Raffinose 3.3% wt) was 0 mm. The “Zone of inhibition M. catarrhalis TW1” value (M. catarrhalis TW1; Raffinose 3.3% wt, pH adjusted) was 0 mm, the “Zone of inhibition M. catarrhalis TW1” value (M. catarrhalis TW1; Raffinose 5% wt) was 5 mm and the “Zone of inhibition M. catarrhalis TW1” value (M. catarrhalis TW1; Raffinose 5% wt, pH adjusted) was 0 mm. The “Zone of inhibition M. catarrhalis TW1” value (M. catarrhalis TW1; Raffinose 10% wt) was 6 mm, the “Zone of inhibition M. catarrhalis TW1” value (M. catarrhalis TW1; Raffinose 10% wt, pH adjusted) was 0 mm and the “antimicrobial activity of K12 against halitosis-causing gram-negative bacteria” value [4] was “inhibit a variety of strains”. The “Total number of strains inhibited” value (indicator strains [5]; Raffinose 1.7% wt) was 6, the “Total number of strains inhibited” value (indicator strains [5]; Raffinose 1.7% wt, pH adjusted) was 5 and the “Total number of strains inhibited” value (indicator strains [5]; Raffinose 2.5% wt) was 7. For the same compound, the “Total number of strains inhibited” value (indicator strains [5]; Raffinose 2.5% wt, pH adjusted) was 6, the “Total number of strains inhibited” value (indicator strains [5]; Raffinose 3.3% wt) was 5 and the “Total number of strains inhibited” value (indicator strains [5]; Raffinose 3.3% wt, pH adjusted) was 5. For the same compound, the “Total number of strains inhibited” value (indicator strains [5]; Raffinose 5% wt) was 6, the “Total number of strains inhibited” value (indicator strains [5]; Raffinose 5% wt, pH adjusted) was 6 and the “Total number of strains inhibited” value (indicator strains [5]; Raffinose 10% wt) was 6. For the same compound, the “Total number of strains inhibited” value (indicator strains [5]; Raffinose 10% wt, pH adjusted) was 6, the Total strains inhibited (indicator strains [5]; saccharide 3.3% w/v) was 3/3 and the Total strains inhibited (indicator strains [5]; saccharide range 2.5%-10% w/v) was 3/3. For the same compound, the “number of the indicators tested inhibited” value (indicator strains [5]; Raffinose 1.7, 2.5, 3.3 and 5%, K12 or M18) was “at least 7”, the “inhibitory spectrum of K12 or M18” value (indicator strains [5]; Raffinose (2.5%)) was “inhibit several ENTR, dental and skin pathogens and S. salivarius strains” and the “Total number of strains inhibited” value (indicator strains [6]; Raffinose 1.7% wt) was 6. The “Total number of strains inhibited” value (indicator strains [6]; Raffinose 1.7% wt, pH adjusted) was 6, the “Total number of strains inhibited” value (indicator strains [6]; Raffinose 2.5% wt) was 7 and the “Total number of strains inhibited” value (indicator strains [6]; Raffinose 2.5% wt, pH adjusted) was 6. For the same compound, the “Total number of strains inhibited” value (indicator strains [6]; Raffinose 3.3% wt) was 6, the “Total number of strains inhibited” value (indicator strains [6]; Raffinose 3.3% wt, pH adjusted) was 6 and the “Total number of strains inhibited” value (indicator strains [6]; Raffinose 5% wt) was 7. The “Total number of strains inhibited” value (indicator strains [6]; Raffinose 5% wt, pH adjusted) was 6, the “Total number of strains inhibited” value (indicator strains [6]; Raffinose 10% wt) was 2 and the “Total number of strains inhibited” value (indicator strains [6]; Raffinose 10% wt, pH adjusted) was 1.
